Experimental data published in ChEMBL document CHEMBL6078624, “Structure-based discovery of a 4,5-Dihydropyrazole-cored PET ligand for imaging of receptor-interacting serine/threonine-protein kinase 1 (RIPK1) in the brain” (Eur J Med Chem, 2024).

Assay: Inhibition of TSZ-induced necroptosis in human HT-29 cells by CellTiter-Glo luminescent cell viability assay

O=C(c1cccc(F)n1)N1CCC(C(=O)N2N=CCC2c2cccc(F)c2)CC1 (centres undefined) showed an EC50 of 98.3 nM.

In the case of O=C(c1cccc(F)n1)N1CCC(C(=O)N2N=CCC2c2cc(F)cc(F)c2)CC1 (centres undefined), the EC50 is reported as 100 nM.

O=C(c1cccc(F)n1)N1CCC(C(=O)N2N=CCC2c2ccccc2)CC1 (centres undefined) gave an EC50 of 242 nM.

Work on Cc1ccc(C2CC=NN2C(=O)C2CCN(C(=O)c3cccc(F)n3)CC2)cc1F (centres undefined) yielded an EC50 of 19.9 nM.
